Data taken from ChEMBL document CHEMBL2401618 (Eur J Med Chem, 2013).

Columns and labels:
[1] = Safety index, ratio of IC50 for african green monkey Vero cells to IC50 for chloroquine-resistant Plasmodium falciparum FcB1/Columbia infected in human erythrocytes; format: toxicity, cell-based; details: read-out: Ratio IC50
Plasmodium falciparum [2] = assay: Antiplasmodial activity against chloroquine-resistant Plasmodium falciparum FcB1/Columbia infected in human erythrocytes assessed as parasite growth inhibition after 24 hrs by [3H]-hypoxanthine incorporation assay; format: functional, organism-based
Leishmania donovani = assay: Leishmanicidal activity against promastigote stage of Leishmania donovani LV9 assessed as cell viability by MTT assay; format: functional, organism-based
Plasmodium falciparum [3] = assay: Antiplasmodial activity against chloroquine-resistant Plasmodium falciparum FcB1/Columbia infected in human erythrocytes assessed as parasite growth inhibition at 10 ug/ml after 24 hrs by [3H]-hypoxanthine incorporation assay relative to control; format: functional; details: read-out: GI
[4] = Safety index, ratio of IC50 for african green monkey Vero cells to IC50 for promastigote stage of Leishmania donovani LV9; format: toxicity, cell-based; details: read-out: Ratio IC50
[5] = system: Trypanosoma brucei brucei; assay: Antitrypanosomal activity against bloodstream stage of Trypanosoma brucei brucei 93 assessed as parasite growth inhibition after 72 hrs by resazurin reduction assay; format: functional, organism-based; details: Trypanosoma brucei, 93, 72 h
Plasmodium falciparum [6] = assay: Antiplasmodial activity against chloroquine-resistant Plasmodium falciparum FcB1/Columbia infected in human erythrocytes assessed as parasite growth inhibition at 1 ug/ml after 24 hrs by [3H]-hypoxanthine incorporation assay relative to control; format: functional; details: read-out: GI
Plasmodium falciparum [7] = assay: Antiplasmodial activity against chloroquine-resistant Plasmodium falciparum FcB1/Columbia infected in human erythrocytes assessed as parasite growth inhibition at 50 ug/ml after 24 hrs by [3H]-hypoxanthine incorporation assay relative to control; format: functional; details: read-out: GI
[8] = system: Trypanosoma brucei brucei; assay: Antitrypanosomal activity against bloodstream stage of Trypanosoma brucei brucei 93 assessed as parasite growth inhibition at 10 ug/ml after 72 hrs by resazurin reduction assay relative to control; format: functional; details: Trypanosoma brucei, 93, 72 h; read-out: GI
[9] = system: Trypanosoma brucei brucei; assay: Antitrypanosomal activity against bloodstream stage of Trypanosoma brucei brucei 93 assessed as parasite growth inhibition at 1 ug/ml after 72 hrs by resazurin reduction assay relative to control; format: functional; details: Trypanosoma brucei, 93, 72 h; read-out: GI
Vero = assay: Cytotoxicity against african green monkey Vero cells assessed as growth inhibition after 72 hrs by MTS assay; format: cell-based; details: Chlorocebus sabaeus
[10] = Cytotoxicity against african green monkey Vero cells assessed as growth inhibition at 10^-5 M after 72 hrs by MTS assay relative to control; format: cell-based; details: chlorocebus sabaeus, read-out: GI
[11] = system: Trypanosoma brucei brucei; assay: Antitrypanosomal activity against bloodstream stage of Trypanosoma brucei brucei 93 assessed as parasite growth inhibition at 50 ug/ml after 72 hrs by resazurin reduction assay relative to control; format: functional; details: Trypanosoma brucei, 93, 72 h; read-out: GI
[12] = Safety index, ratio of IC50 for african green monkey Vero cells to IC50 for bloodstream stage of Trypanosoma brucei brucei 93; format: toxicity, cell-based; details: read-out: Ratio IC50

| Compound | selectivity ratio [1] | IC50 (Plasmodium falciparum [2]) [µM] | IC50 (Leishmania donovani) [µM] | inhibition of growth at 10 µg/mL (Plasmodium falciparum [3]) [%] | selectivity ratio [4] | IC50 [5] [µM] | inhibition of growth at 1 µg/mL (Plasmodium falciparum [6]) [%] | inhibition of growth at 50 µg/mL (Plasmodium falciparum [7]) [%] | inhibition of growth at 10 µg/mL [8] [%] | inhibition of growth at 1 µg/mL [9] [%] | IC50 (Vero) [µM] | inhibition at 72 h, 10 µM [10] [%] | inhibition of growth at 50 µg/mL [11] [%] | selectivity ratio [12] |
| --- | --- | --- | --- | --- | --- | --- | --- | --- | --- | --- | --- | --- | --- | --- |
| CC(C)=CCC[C@]1(C)[C@@H](CC=C(C)C)C[C@]2(CC=C(C)C)C(=O)[C@@]1(CC=C(C)C)C(=O)C(C(=O)c1ccc(OCCC3OCCO3)c(OCCC3OCCO3)c1)=C2O | 20.8 | 2 | 34.3 | 94.1 | 1.2 | 1.83 | 17.6 | 99.6 | 96.7 | 44.8 | 41.6 | 29 | 95 | 22.8 |
| CC(C)=CCC[C@]1(C)[C@@H](CC=C(C)C)C[C@]2(CC=C(C)C)C(=O)[C@@]1(CC=C(C)C)C(=O)C(C(=O)c1ccc(OC(=O)C(C)(C)C)c(OC(=O)C(C)(C)C)c1)=C2O | – | – | > 100 | 27.2 | < 1 | 8.66 | 4.48 | 0.5 | 91.2 | 42.9 | 100 | 13 | 96.4 | 11.5 |
| COc1ccc(C(=O)C2=C(O)[C@]3(CC=C(C)C)C[C@H](CC=C(C)C)[C@@](C)(CCC=C(C)C)[C@](CC=C(C)C)(C2=O)C3=O)cc1O [14-O-METHYL-GUTTIFERONE A] | 2.6 | 4.46 | 9.4 | 75.2 | 1.2 | 1.42 | 10.7 | 98.9 | 96.3 | 85.3 | 11.5 | – | 92.8 | 8.1 |
